Test systems include SK-OV-3; SK-MEL-2; SR; MDA-MB-231; CAKI-1; IGROV-1; Malme-3M; HL-60; EKVX; A498; SN12C; UACC-62; HT-29; MOLT-4; SF-295; LOX IMVI; SF-539; NCI-H460; HOP-92.
What all share (test): NCI anticancer screen, dose series, 48 h

These results are taken from ChEMBL document CHEMBL1201862, “PubChem BioAssay data set” (2004).

Structures are written as SMILES.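 Briefly, cells in 96-well plates were exposed to five compound concentrations for 48 h, and endpoints were estimated by linear interpolation. Here, GI50 denotes the concentration required for 50% inhibition of growth.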 Activity calls are given as the source filed them. Rule as the data show it: active = GI50 up to about 1.1 µM and inactive = higher.

As to `Cc1cc(C(=O)CCCCOc2ccc(C3=NCCO3)cc2)c(C)n1C`, the GI50 is 49.7 µM (inactive) with SK-OV-3; 28.7 µM (inactive) in the experiment with SK-MEL-2; 29.4 µM (inactive) with SR; > 100 µM (inactive) in the experiment on MDA-MB-231; 37.2 µM (inactive) with CAKI-1; 37.2 µM (inactive) with IGROV-1. Moreover, the GI50 is 35.3 µM (inactive) in the experiment with Malme-3M; 0.0883 µM (active) with HL-60; 35.8 µM (inactive) with EKVX; 34.6 µM (inactive) with A498; 56.5 µM (inactive) in the experiment on SN12C; > 10 µM (inactive) with UACC-62. Besides, the results for the GI50 with HT-29, in the experiment with MOLT-4 and with SF-295 were 39.1 µM (inactive), 14.7 µM (inactive) and 34.4 µM (inactive), respectively.
On to `CSc1c(C(=O)Nc2ccccc2)c(N)n(N)c(=O)c1C#N`, for which the GI50 in the experiment with SK-OV-3, in the experiment on SK-MEL-2, with SR, with MDA-MB-231, in the experiment on CAKI-1 and in the experiment on IGROV-1 was > 100 µM (inactive) each time. Also, the GI50 with LOX IMVI is > 100 µM (inactive); in the experiment with Malme-3M, > 100 µM (inactive); in the experiment on HL-60, > 100 µM (inactive); with EKVX, > 100 µM (inactive); in the experiment with SF-539 it was > 100 µM (inactive); with A498, 30.5 µM (inactive). Also, the GI50 in the experiment with SN12C, with UACC-62, in the experiment with NCI-H460, in the experiment with HT-29 and in the experiment with MOLT-4 was > 100 µM (inactive) throughout.
As for `COC(=O)Cc1ccc2c(cnn2-c2ccccc2)c1OC`, the GI50 in the experiment with SK-OV-3, in the experiment with SK-MEL-2, with SR, in the experiment with MDA-MB-231, in the experiment with CAKI-1 and in the experiment with IGROV-1 was > 10 µM (inactive) throughout. The GI50 with LOX IMVI is > 10 µM (inactive); in the experiment on Malme-3M it was > 10 µM (inactive); with HL-60, > 10 µM (inactive); with EKVX, 9.75 µM (inactive); in the experiment on SF-539, > 10 µM (inactive); in the experiment with A498, > 10 µM (inactive). For the same molecule, the GI50 in the experiment on SN12C, with UACC-62, with NCI-H460, with HT-29, with MOLT-4 and in the experiment with SF-295 was > 10 µM (inactive) in each case.
`COC(=O)[C@]1(NC(=O)c2ccccc2)C[C@H]1C=O`: the GI50 in the experiment on SK-OV-3 was 93.8 µM (inactive); with SK-MEL-2, > 100 µM (inactive); in the experiment with SR it was 28.2 µM (inactive); in the experiment with MDA-MB-231 it was > 100 µM (inactive); in the experiment with CAKI-1 it was > 100 µM (inactive); in the experiment with IGROV-1, > 100 µM (inactive). For the same molecule, the GI50 with LOX IMVI was 98.6 µM (inactive); in the experiment on Malme-3M it was > 100 µM (inactive); in the experiment on HOP-92, > 100 µM (inactive); with EKVX it was > 100 µM (inactive); with SF-539, > 100 µM (inactive); in the experiment on A498, > 71.8 µM (inactive). Also, the GI50 with SN12C is > 100 µM (inactive); with UACC-62 it was > 64.7 µM (inactive); with NCI-H460, 15 µM (inactive); in the experiment on HT-29, > 100 µM (inactive); with MOLT-4, > 64.7 µM (inactive); with SF-295, > 78.5 µM (inactive).
`CCOC(=O)C#Cc1ccc([N+](=O)[O-])cc1`: the GI50 is 12.7 µM (inactive) in the experiment on SK-OV-3; 3.24 µM (inactive) in the experiment on SK-MEL-2; 1.77 µM (inactive) with SR; 2.28 µM (inactive) in the experiment with MDA-MB-231; 1.87 µM (inactive) in the experiment on CAKI-1; 1.96 µM (inactive) with IGROV-1. The GI50 in the experiment on LOX IMVI was 1.34 µM (inactive); with HL-60, 1.73 µM (inactive); with HOP-92 it was 1.8 µM (inactive); in the experiment on EKVX, 3.15 µM (inactive); in the experiment on SF-539 it was 2.06 µM (inactive); with A498 it was 17.5 µM (inactive). Also, the GI50 with SN12C is 1.69 µM (inactive); in the experiment with UACC-62, 1.98 µM (inactive); in the experiment on NCI-H460, 12.4 µM (inactive); in the experiment with HT-29, 1.53 µM (inactive); with MOLT-4, 1.73 µM (inactive); in the experiment on SF-295, 12.9 µM (inactive).
On to `CCOC(=O)/C=C(/C(=O)OCC)n1ccc(=O)n(Cc2cn(COCCOC(C)=O)nn2)c1=O`, for which the GI50 in the experiment with SK-OV-3 was > 100 µM (inactive); in the experiment with SK-MEL-2 it was 25.2 µM (inactive); in the experiment with SR it was 19.4 µM (inactive); in the experiment on MDA-MB-231 it was 28.8 µM (inactive); in the experiment with CAKI-1, 4.74 µM (inactive); in the experiment on IGROV-1, 18 µM (inactive). In addition, the GI50 was 20.9 µM (inactive) in the experiment with LOX IMVI; 1.53 µM (inactive) in the experiment with HOP-92; 16.9 µM (inactive) in the experiment with EKVX; 20.3 µM (inactive) in the experiment with SF-539; 20.5 µM (inactive) in the experiment with A498; 34.8 µM (inactive) with SN12C. Further, the GI50 was 18.3 µM (inactive) in the experiment with UACC-62; 15.6 µM (inactive) with NCI-H460; 18.1 µM (inactive) in the experiment on HT-29; 17.3 µM (inactive) in the experiment with MOLT-4; > 100 µM (inactive) with SF-295.
On to `O=C1[C@H](c2ccccc2)C2c3ccccc3CCN12` (stereo not given in full), for which the GI50 with SK-OV-3, in the experiment with SK-MEL-2, with SR, in the experiment with MDA-MB-231, with CAKI-1 and with IGROV-1 was > 10 µM (inactive) each time. For the same molecule, the GI50 was > 10 µM (inactive) in the experiment on LOX IMVI; 0.897 µM (active) in the experiment on Malme-3M; > 10 µM (inactive) in the experiment on HL-60; > 10 µM (inactive) in the experiment with EKVX; > 10 µM (inactive) in the experiment with SF-539; > 10 µM (inactive) with A498. Moreover, the GI50 in the experiment with SN12C, in the experiment with UACC-62, in the experiment on NCI-H460, in the experiment with HT-29, with MOLT-4 and in the experiment with SF-295 was > 10 µM (inactive) in each case.
For the molecule `CCOC(=O)CN1CCNCCN(CC(=O)OCC)CCNCC1`, the GI50 was > 100 µM (inactive) with SK-OV-3; > 100 µM (inactive) in the experiment with SK-MEL-2; 78.7 µM (inactive) in the experiment with SR; > 100 µM (inactive) in the experiment with MDA-MB-231; > 100 µM (inactive) with CAKI-1; > 100 µM (inactive) in the experiment with IGROV-1. For the same molecule, the GI50 in the experiment on LOX IMVI, in the experiment on HL-60, in the experiment with HOP-92, in the experiment with EKVX, with SF-539 and in the experiment with A498 was > 100 µM (inactive) each time. The GI50 in the experiment with SN12C was > 100 µM (inactive); in the experiment on UACC-62, > 100 µM (inactive); with NCI-H460 it was 90.4 µM (inactive); in the experiment with HT-29 it was 55.3 µM (inactive); in the experiment on MOLT-4, > 100 µM (inactive); with SF-295, > 100 µM (inactive).
In the case of `Cc1cc(OP2(=O)NCc3ncccc3O2)ccc1Cl` (stereo not given), the GI50 in the experiment with SK-MEL-2, with SR, in the experiment on MDA-MB-231, with CAKI-1, with IGROV-1 and in the experiment with LOX IMVI was > 100 µM (inactive) in each case. In addition, the GI50 with HOP-92, with EKVX, in the experiment on SF-539, with A498, with SN12C and in the experiment with UACC-62 was > 100 µM (inactive) each time. Moreover, the GI50 with NCI-H460, in the experiment with MOLT-4 and in the experiment on SF-295 was > 100 µM (inactive) throughout.
As for `O=C1/C(=C/c2ccccc2[N+](=O)[O-])N=C(c2ccccc2)N1c1nc2ccccc2s1`, the GI50 was 33.2 µM (inactive) with SK-MEL-2; 12.9 µM (inactive) with SR; 45.9 µM (inactive) in the experiment with MDA-MB-231; 34.1 µM (inactive) in the experiment on CAKI-1; 11.9 µM (inactive) with IGROV-1; 22 µM (inactive) with LOX IMVI. For the same molecule, the GI50 was 26.1 µM (inactive) with HL-60; 21 µM (inactive) in the experiment on HOP-92; 29 µM (inactive) in the experiment on EKVX; 30.1 µM (inactive) in the experiment with SF-539; 28.1 µM (inactive) in the experiment with A498; 25 µM (inactive) with SN12C. The GI50 in the experiment on NCI-H460 is 27 µM (inactive); in the experiment on HT-29, 35.4 µM (inactive); in the experiment with MOLT-4, 5.92 µM (inactive); in the experiment on SF-295 it was 40.2 µM (inactive).
In the case of `CCCCCCCCCCCC[C@@H](O)[C@H]1CC[C@H]([C@H]2CC[C@H]([C@H](O)CC[C@H](O)CCCCCCCC3=C[C@H](C)OC3=O)O2)O1`, the GI50 in the experiment on SK-MEL-2 was 1.52 µM (inactive); in the experiment on SR, 2.03 µM (inactive); in the experiment on MDA-MB-231, 2.62 µM (inactive); in the experiment with CAKI-1, 2.67 µM (inactive); in the experiment with IGROV-1, 1.65 µM (inactive); in the experiment with LOX IMVI, 1.17 µM (inactive). Moreover, the GI50 in the experiment with HL-60 is 1.26 µM (inactive); in the experiment on HOP-92, 2.16 µM (inactive); in the experiment on EKVX, 1.1 µM (active); in the experiment with SF-539, 1.68 µM (inactive); in the experiment with A498 it was 2.52 µM (inactive); in the experiment on SN12C, 3.22 µM (inactive). Also, the GI50 with UACC-62 is 1.02 µM (active); in the experiment on NCI-H460, 1.08 µM (active); in the experiment with HT-29 it was 1.76 µM (inactive); in the experiment with MOLT-4, 1.84 µM (inactive); with SF-295, 1.26 µM (inactive).
As for `O=C1C(O)=C(CCCCCCCCC2CCCCC2)C(=O)c2ccccc21` [MENOCTONE], the GI50 in the experiment on SK-OV-3 is 16.1 µM (inactive); in the experiment with SK-MEL-2 it was 11.8 µM (inactive); with SR, 6.4 µM (inactive); in the experiment on MDA-MB-231, 4.56 µM (inactive); in the experiment with CAKI-1, 5.5 µM (inactive); in the experiment with IGROV-1, 5.3 µM (inactive). In addition, the GI50 with LOX IMVI was 3.6 µM (inactive); in the experiment with Malme-3M, 1.3 µM (inactive); in the experiment with HL-60 it was 1 µM (active); with HOP-92, 10 µM (inactive); in the experiment with EKVX, 4.55 µM (inactive); in the experiment on SF-539, 7.53 µM (inactive). Also, the GI50 was 7.89 µM (inactive) in the experiment with SN12C; 6.05 µM (inactive) with UACC-62; 4.3 µM (inactive) in the experiment with NCI-H460; 12 µM (inactive) in the experiment with HT-29; 2.58 µM (inactive) with MOLT-4; 6.98 µM (inactive) with SF-295.
